The values that follow come from patent US8785418B2, “Lyophilization cakes of proteasome inhibitors” (Cephalon, Inc., priority 2009, dated 2014).

Data set [1] can be described thus: Hydrolysis of Compound 10 in aqueous solution. It is filed as physicochemical. As for the experimental part:
Mannitol (39.2 mg) and Kleptose® HP (hydroxypropyl-β-cyclodextrin; 49 mg) are dissolved in sterile water for injection (599 mg) at room temperature. Compound 10 (1.167 mg) is dispersed in tert-butanol (312 mg) by magnetic stirring protected from light at room temperature during 10 minutes. A few mL of the Mannitol/Kleptose® solution is poured into the Compound 10 dispersion in order to solubilize the Compound 10. After forming a solution, the remaining Mannitol/Kleptose® solution is added. The solution is stirred for a few minutes while protected from light. In Formulation 7, the pH is adjusted with phosphoric acid (2M) down to pH 4.0±0.2. In Formulation 8, the pH is about 8 and is not adjusted. The pre-lyophilization solution is filtered through a sterile disposable PVDF filter of 0.22 μm (Stericup Millipore®) to form a clear solution. 4 mL of the filtered pre-lyophilization solution is transferred into a 10 mL bottle and then freeze-dried.
Analysis of the pre-lyophilization solutions for Formulations 7 and 8 were performed at T0 and after 48 hours storage at 25° C. Compound 1 was analyzed because Compound 10 is known to convert to Compound 1 in aqueous solution.

Data set [2] is described as follows: Stability of Compound 1 drug substance. It is filed as physicochemical. The source says:
Piva, R. R., et al., Blood, 1 Mar. 2008, vol 111, No. 5, p 2765-2775. […] Id.
Compound 1 is currently undergoing clinical trials.

The subject of another data set is angiogenesis. Conditions: in vitro; cited from earlier work.
The subject of data set [3] is RANKL-induced osteoclastoenesis. Conditions: in vitro; cited from earlier work.
The subject of data set [4] is normal human epithelial cells, bone marrow progenitors, and bone marrow-derived stromal cells. The following applies: cited from earlier work.

A value given as a limit tells only on which side of the number the result lay.

With “6-(2S,3R)-N-[(1R)-1-(1,3,6,2-dioxazaborocan-2-yl)-3-methylbutyl}-3-hydroxy-2-{(6-phenylpyridin-2-yl)formamido]butanamide [Compound 10]”, the “Hydrolysis in aqueous solution” value in data set [1] (aqueous solution, converts to Compound 1) is given as “readily hydrolyzed”. In addition, in data set [1] (lyophilized cake of Formulations 7 and 8 (4 mL fill)), the “Compound 10 remaining in obtained lyophilized cake” value was under 0.01 mg.
`CC(C)C[C@H](NC(=O)[C@@H](NC(=O)c1cccc(-c2ccccc2)n1)[C@@H](C)O)B(O)O` [Compound 1, [(1R)-1-[[(2S,3R)-3-Hydroxy-2-[[(6-phenylpyridin-2-yl)carbonyl]amino]-1-oxobutyl]amino]-3-methylbutyl]boronic acid]: in data set [2] (exposure to air and/or light, some batches degrade at temperatures as low as 5° C.), the “Stability of the compound” value was “unstable and subject to degradation upon exposure to air and/or light”. Moreover, the Stability in solution result in data set [2] (solution) is recorded as “unstable in solution”. For the same molecule, in the data set with angiogenesis, the Anti-angiogenic activity entry is “strong anti-angiogenic activity”. Further, in data set [3], the RANKL-induced osteoclastoenesis result is “represses”. Besides, in data set [4], the Cytotoxicity profile result is reported as “favorable cytotoxicity profile”.
